Measured values reported in ChEMBL document CHEMBL1201862, “PubChem BioAssay data set” (2004).
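A five-concentration, 48-hour dose response in 96-well plates underlies each endpoint, interpolated linearly between surrounding concentrations. Here, GI50 denotes the concentration required for 50% inhibition of growth.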 The source made the active and inactive calls. No stated cut-off is given here; in the data, active = GI50 up to about 1.1 µM and inactive = higher.

Key:
Experiment in all cases: NCI tumour cell line growth inhibition, 48 h
UACC-257 = system: UACC-257
UACC-62 = system: UACC-62
HT-29 = system: HT-29
M14 = system: M14
A549 = system: A549
MDA-MB-231 = system: MDA-MB-231
SF-268 = system: SF-268
NCI-H226 = system: NCI-H226
SN12C = system: SN12C
HCC 2998 = system: HCC 2998
SK-MEL-5 = system: SK-MEL-5
786-0 = system: 786-0
PC-3 = system: PC-3
T47D = system: T47D
SK-OV-3 = system: SK-OV-3
NCI-H460 = system: NCI-H460
HOP-92 = system: HOP-92
OVCAR-5 = system: OVCAR-5
RPMI-8226 = system: RPMI-8226
CAKI-1 = system: CAKI-1

## Nc1c(Cl)cc(-c2nc3ccccc3s2)cc1Cl
UACC-257
  GI50: > 100 µM (inactive)
UACC-62
  GI50: > 100 µM (inactive)
HT-29
  GI50: > 100 µM (inactive)
M14
  GI50: > 100 µM (inactive)
A549
  GI50: > 100 µM (inactive)
MDA-MB-231
  GI50: 69 µM (inactive)
SF-268
  GI50: > 100 µM (inactive)
NCI-H226
  GI50: > 100 µM (inactive)
SN12C
  GI50: > 100 µM (inactive)
HCC 2998
  GI50: > 100 µM (inactive)
SK-MEL-5
  GI50: > 100 µM (inactive)
786-0
  GI50: 22.6 µM (inactive)
PC-3
  GI50: > 100 µM (inactive)
T47D
  GI50: 4.16 µM (inactive)
SK-OV-3
  GI50: > 100 µM (inactive)
NCI-H460
  GI50: 0.556 µM (active)
HOP-92
  GI50: > 100 µM (inactive)

## O=C1c2ccccc2C(=O)c2c(NCCNC(=O)C3CCCN3)ccc(NCCNC(=O)C3CCCN3)c21 (centres undefined)
UACC-257
  GI50: > 100 µM (inactive)
UACC-62
  GI50: 38.7 µM (inactive)
HT-29
  GI50: 47.4 µM (inactive)
M14
  GI50: > 100 µM (inactive)
A549
  GI50: > 100 µM (inactive)
MDA-MB-231
  GI50: 23.7 µM (inactive)
SF-268
  GI50: 34.1 µM (inactive)
NCI-H226
  GI50: > 100 µM (inactive)
SN12C
  GI50: 46 µM (inactive)
HCC 2998
  GI50: 35.9 µM (inactive)
SK-MEL-5
  GI50: 88.5 µM (inactive)
786-0
  GI50: 0.219 µM (active)
OVCAR-5
  GI50: 51.4 µM (inactive)
RPMI-8226
  GI50: 22.6 µM (inactive)
PC-3
  GI50: 67.9 µM (inactive)
T47D
  GI50: 30 µM (inactive)
SK-OV-3
  GI50: > 100 µM (inactive)
CAKI-1
  GI50: > 100 µM (inactive)
HOP-92
  GI50: 41 µM (inactive)

## CC1=NN(c2cc(Cl)c(S(=O)(=O)O)cc2Cl)C2(C1)C(Cl)C(=O)N2c1nc2ccccc2s1 (centres undefined)
UACC-257
  GI50: > 100 µM (inactive)
UACC-62
  GI50: 71 µM (inactive)
HT-29
  GI50: > 100 µM (inactive)
M14
  GI50: > 100 µM (inactive)
A549
  GI50: > 100 µM (inactive)
MDA-MB-231
  GI50: 42.6 µM (inactive)
SF-268
  GI50: > 100 µM (inactive)
NCI-H226
  GI50: 53.5 µM (inactive)
SN12C
  GI50: > 100 µM (inactive)
HCC 2998
  GI50: > 100 µM (inactive)
SK-MEL-5
  GI50: > 100 µM (inactive)
786-0
  GI50: > 100 µM (inactive)
OVCAR-5
  GI50: > 100 µM (inactive)
RPMI-8226
  GI50: 79.3 µM (inactive)
PC-3
  GI50: 27.8 µM (inactive)
T47D
  GI50: 66.1 µM (inactive)
CAKI-1
  GI50: > 100 µM (inactive)
NCI-H460
  GI50: > 100 µM (inactive)
HOP-92
  GI50: > 100 µM (inactive)

## O=P1(Oc2ccc(Cl)cc2)OCCS1 (centres undefined)
UACC-257
  GI50: > 100 µM (inactive)
UACC-62
  GI50: > 100 µM (inactive)
HT-29
  GI50: > 100 µM (inactive)
M14
  GI50: > 100 µM (inactive)
A549
  GI50: > 100 µM (inactive)
MDA-MB-231
  GI50: > 100 µM (inactive)
SF-268
  GI50: > 100 µM (inactive)
NCI-H226
  GI50: > 100 µM (inactive)
SN12C
  GI50: > 100 µM (inactive)
HCC 2998
  GI50: > 100 µM (inactive)
SK-MEL-5
  GI50: > 100 µM (inactive)
786-0
  GI50: > 100 µM (inactive)
OVCAR-5
  GI50: > 100 µM (inactive)
RPMI-8226
  GI50: > 100 µM (inactive)
PC-3
  GI50: > 100 µM (inactive)
T47D
  GI50: > 100 µM (inactive)
SK-OV-3
  GI50: > 100 µM (inactive)
NCI-H460
  GI50: > 100 µM (inactive)
HOP-92
  GI50: > 100 µM (inactive)
